Experimental data taken from PubChem BioAssay AID1993 (NMMLSC, 2009).
Activity calls are given as the source filed them.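 The calls were made as follows: active = fluorescence area over time at least a quarter above or below the solvent control area (some results past the limit were not filed as active); inactive = the rest.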

tested on: U937 FPR-DeltaST, VLA-4 LDV-FITC binding, flow cytometry; assay: FPR-triggered VLA-4 ligand binding change in U937, RGS protein inhibitor project, cell-based, U937 FPR-DeltaST, LDV-FITC, flow cytometry (AID 1993); settings: at 10 µM; hits give high values

SMILES | AUC
O=c1c2ccccc2sn1-c1ccccc1 | 18300 (inactive)
Cc1cccc(N2CCN(C(=O)Cn3sc4nc(C)cc(C)c4c3=O)CC2C)c1 (configuration not stated) | 25500
CCC(=O)NC1=C(Cl)C(=O)C(NC(=O)CC)=C(Cl)C1=O | 11600 (inactive)
O=C1C(Cl)=C(N2CCCCC2)C(=O)C(Cl)=C1c1cnc(N2CCCCC2)s1 | 2540 (inactive)
Cc1ccc(NC(=O)Cn2sc3nc(C)cc(C)c3c2=O)c(Cl)c1 | 23500 (inactive)
Cc1[nH]n(-c2ccccc2)c(=S)c1C=Nc1cccc([N+](=O)[O-])c1 | 26500
O=c1c2ccccc2sn1-c1cc(S(=O)(=O)N2CCOCC2)ccc1N1CCCC1 | 19600 (inactive)
CCN(CC)S(=O)(=O)c1cccc(C(=O)N/N=C/c2ccc(O)c(O)c2O)c1 | 26500
O=c1c2ccccc2sn1-c1ccc(S(=O)(=O)N2CCCC2)cc1 | 19400 (inactive)
COc1ccc(OC)c(CCNC(=O)Cn2sc3nc(C)cc(C)c3c2=O)c1 | 26600
Nc1c(C(=O)NCC2CCCO2)sc2nc3c(c(-c4ccco4)c12)CC/C3=C\c1ccco1 (configuration not stated) | 455 (inactive)
NS(=O)(=O)c1ccc(N/N=C/c2ccc(O)c(O)c2O)c([N+](=O)[O-])c1 | 20500 (inactive)
CCOC(=O)C1CCCN(C(=O)Cn2sc3nc(C)cc(C)c3c2=O)C1 (configuration not stated) | 27900
Cc1cc(C)c2c(=O)n(CC(=O)Nc3ccc(Cl)cc3)sc2n1 | 22800 (inactive)
Cc1cc(C)c2c(=O)n(CC(=O)Nc3cccc(F)c3)sc2n1 | 25000 (inactive)
CC(NC(=O)c1sc2cc([N+](=O)[O-])ccc2c1Cl)C(C)(C)C (configuration not stated) | 29100
O=C(NCCCN1CCOCC1)c1sc2cc([N+](=O)[O-])ccc2c1Cl | 27100
